Measurements as given in US20250295607A1, “OPHTHALMIC COMPOSITIONS FOR TREATMENT OF OCULAR SURFACE DAMAGE AND SYMPTOMS OF DRYNESS” (Novaliq GmbH, priority 2018, published 2025).

Assays:
[1] = tested on: subjects with Dry Eye Disease; assay: Ocular Surface Disease Index (OSDI) questionnaire; format: in vivo, human
Excerpt: The Ocular Surface Disease Index (OSDI©)) is perhaps the most frequently used survey instrument for the assessment of ocular surface disease severity in dry eye research. The OSDIC was created by the Outcomes Research Group at Allergan Inc in order to quickly assess the symptoms of ocular irritation in dry eye disease and how they affect functioning related to vision. This 12-item questionnaire assesses dry eye symptoms and the effects it has on vision-related function in the past week of the patient's life. The questionnaire has 3 subscales: ocular symptoms, vision-related function, and environmental triggers. Patients rate their responses on a 0 to 4 scale with 0 corresponding to “none of the time” and 4 corresponding to “all of the time.” A final score is calculated which ranges from 0 to 100.
The questions assess the following: dry eye symptoms experienced by the patient within past week: sensitivity to light, gritty sensation, pain or sore eyes, blurriness, and poor vision; vision-related function, in terms of problems in the past week with regards to: reading, driving at night, working on a computer or bank machine, watching television; and in terms of environmental factors or triggers i.e. discomfort experienced in the past week during: windy conditions, places with low humidity, and areas with air condition.
Subtotals are obtained for all the questions, as well as the total number of questions answered. The OSDI index is assessed based on a scale of 0 to 100, with higher scores representing a greater disability. The OSDI index is calculated from the sum of the scores multiplied by a factor of 25, over the total number of questions answered. Higher scores represent a greater degree/severity and impact of dry eye disease.

[2] = tested on: cornea of subjects with Dry Eye Disease; assay: Corneal fluorescein staining, NEI grading scale (ocular surface damage); format: in vivo, human
Excerpt: A Wratten #12 yellow filter will be used to enhance the ability to grade fluorescein staining. The staining will be graded with the NEI (National Eye Institute) Grading
Scale. Only the staining of the cornea will be graded. Digital images of fluorescein staining may be taken for digital analysis.
Based on the NEI/Industry Workshop Scale, the grade of the ocular surface damage for each eye is scored for each of the five regions of the cornea based on measuring fluorescein uptake.
Grade 0 will be specified when no fluorescein staining is present. Grades 1, 2 and 3 define an increasing density and degree of observed fluorescein staining, The maximum total score for each eye is 15.

[3] = tested on: subjects with Dry Eye Disease; assay: Phase 2 multi-center, randomized, double-masked, saline-controlled clinical study (NCT03333057), signs and symptoms overall; format: in vivo, human
Method: A Phase 2, Multi-Center, Randomized, Double-Masked, Saline-Controlled Study to Evaluate the Effect of 1-Perfluorohexyloctane (NOV03) at two different dosing regimens on signs and symptoms of Dry Eye Disease (DED) was conducted. The study was performed at 11 investigational cites in the United States. The study was reviewed and approved by the respective ethics committees and registered at www.clinicaltrials.gov (NCT03333057).
The primary objective for this study is to evaluate the efficacy, safety, and tolerability of an ophthalmic composition essentially consisting of 1-perfluorohexyloctane (NOV03) at two different dosing regimens (QID, BID) compared to saline solution in subjects with Dry Eye Disease. The secondary objectives are to compare the effect of an ophthalmic composition essentially consisting of 1-perfluorohexyloctane (NOV03) and saline solution at two different dosing regimens on signs and symptoms of Dry Eye Disease and to evaluate the pharmacokinetics after 57 days dosing.
Subjects must: • a. Be at least 18 years of age. • b. Provide written informed consent. • c. Have a subject reported history of Dry Eye Disease in both eyes for at least 6 months prior to Visit 0. • d. […] Have Meibomian Gland Dysfunction (MGD) defined as MGD score≥3 (secretion of 5 central glands on lower eyelid will be evaluated, each will be scored from 0-3; 0=normal, 1=thick/yellow, whitish, particulate 2=paste; 3=none/occluded; total score will range from 0-15) at Visit 0 and Visit 1. • h. […]
Screening (Visit 0); Within 14 days before Visit 1 Subjects will be required to sign an Informed Consent before completing any study related procedure. At the screening visit, vital signs will be assessed and the subject will give blood for safety laboratory tests. […]
Baseline Visit Day 1 (Visit 1): On Day 1 (Visit 1), eligible subjects will be evaluated for baseline signs and symptoms of dry eye disease. […]
Visits 2-4; Subjects will return to the clinic on Day 15±1 (Visit 2), 29±2 (Visit 3), and 57±2 (Visit 4) to be evaluated for signs and symptoms of dry eye disease. […]

Density = format: physicochemical
[4] = tested on: subjects with Dry Eye Disease; assay: Visual Analog Scale (VAS) Eye Dryness Score questionnaire; format: in vivo, human; details: QID
Method: An Eye Dryness Score was determined based on a 10-item questionnaire provided to subjects, where subjects were asked to rate their ocular symptoms (both eyes simultaneously) due to ocular dryness by placing a vertical mark on a horizontal line scale to indicate the level of discomfort (0% corresponds to “no dryness” and 100% corresponds to “maximal dryness”). Subjects are asked about the severity of dry eye symptoms, namely the symptoms of dryness representing the first 8 questions of the VAS questionnaire corresponding to: dryness (corresponding to the first question in the VAS questionnaire, and also referred to in the text and in the graphs as “severity of dryness”; with the terms “dryness” and “severity of dryness” being used interchangeably herein as a dry eye symptom designation, sticky feeling, burning/stinging, foreign body sensation, itching, blurred vision, sensitivity to light, and pain.
Subjects are also asked about their awareness of their dry eye symptoms and frequency of their dry eye symptoms, namely questions 9-10 of the VAS questionnaire. The rating for these questions is indicated by the subject by placing a vertical mark on a horizontal line scale to indicate the percentage of time of awareness or frequency, with 0% corresponding to ‘never’ and 100% corresponding to ‘all of the time’.

[5] = QID, significant also at 4 weeks, 8 weeks
[6] = QID, after 2 weeks of treatment

density (Density): 1.35 g/mL | density (d) (Density): 1.35 g/mL
Compound: CCCCCCCCC(F)(F)C(F)(F)C(F)(F)C(F)(F)C(F)(F)C(F)(F)F [NOV03, 1-perfluorohexyloctane]
OSDI blurred vision ([1]; QID vs saline): clear improvements | OSDI eyes feeling gritty ([1]; QID vs saline): clear improvements | OSDI painful or sore eyes ([1]; QID vs saline): clear improvements | OSDI poor vision ([1]; QID vs saline): clear improvements | OSDI problems with driving at night ([1]; QID vs saline): clear improvements | OSDI problems with watching TV ([1]; QID vs saline): clear improvements | OSDI reading problems ([1]; QID vs saline): clear improvements | OSDI sensitivity to light ([1]; QID vs saline): clear improvements | OSDI uncomfortable in areas that are air conditions ([1]; QID vs saline): clear improvements | OSDI uncomfortable in areas with low humidity ([1]; QID vs saline): clear improvements | OSDI uncomfortable under windy conditions ([1]; QID vs saline): clear improvements | OSDI problems with working with a computer or bank machine (ATM) ([1]; QID, at the 4 and 8-week timepoint, higher data variability): did not improve | total OSDI score ([1]; QID, over the placebo group): highly statistical significant improvement | start of treatment effect relating to the OSDI symptoms [1, 5]: 2 weeks | reduction of ocular surface damage, superior corneal region ([2]; QID vs saline): did not show such clear improvement | reduction of ocular surface damage, central corneal region ([2]; QID vs saline, 2, 4, 8 weeks): clear improvements | reduction of ocular surface damage, inferior corneal region ([2]; QID vs saline, 2, 4, 8 weeks): clear improvements | reduction of ocular surface damage, nasal corneal region ([2]; QID vs saline, 2, 4, 8 weeks): clear improvements | reduction of ocular surface damage, temporal corneal region ([2]; QID vs saline, 2, 4, 8 weeks): clear improvements | patients with improvement of ≥1 grade in central corneal staining [2, 6]: 39% | patients with improvement of ≥3 grades in total corneal staining [2, 6]: 32% | patients with improvement of ≥1 grade in central corneal staining ([2]; QID, after 8 weeks): 50% | patients with improvement of ≥3 grades in total corneal staining ([2]; QID, after 8 weeks): 42% | total corneal fluorescein staining (primary efficacy endpoint), reduction of ocular surface damage of the total corneal region ([2]; QID, at 8 weeks, vs saline): met its prespecified primary efficacy endpoint | start of treatment effect relating to the signs [2, 5]: 2 weeks | signs and symptoms of dry eye disease ([3]; 4 times daily, single drop of 10-12 μl, highly symptomatic DED population with significant MGD involvement): relevant and statistically significant improvements | benefit in patient population by baseline characteristics ([3]; QID, OSDI between 38 and 72, TBUT between 2.1 and 3.9 seconds or MGD score between 4.0 and 11.2, and/or total corneal fluorescein staining between 4.8 and 9.2): beneficial | benefit in patients meeting one or more baseline criteria ([3]; QID, TBUT equal or lower than 3, OSDI higher than 57, total corneal fluorescein staining between 5 and 9, MGD score equal or higher than 7, Schirmer I Test greater or equal than 10 mm): especially benefitted | VAS pain ([4]; at the 4 week timepoint, higher variability): did not improve | VAS awareness of dryness ([4]; over the placebo group): highly statistical significant improvement | VAS blurred vision ([4]; over the placebo group): highly statistical significant improvement | VAS burning/stinging ([4]; over the placebo group): highly statistical significant improvement | VAS foreign body sensation ([4]; over the placebo group): highly statistical significant improvement | VAS frequency of dryness ([4]; over the placebo group): highly statistical significant improvement | VAS itching ([4]; over the placebo group): highly statistical significant improvement | VAS sensitivity to light ([4]; over the placebo group): highly statistical significant improvement | VAS severity of dryness ([4]; over the placebo group): highly statistical significant improvement | VAS sticky feeling ([4]; over the placebo group): highly statistical significant improvement | VAS severity of dryness in patients with Schirmer I Test of greater or equal than 10 mm ([4]; subpopulation with normal tear production, DED associated with MGD, 8 weeks): significant change from baseline | start of treatment effect relating to the VAS symptoms ([4]; significant also at 4 weeks, 8 weeks): 2 weeks
